Our source for the EC50 values is US9290451B2 (Hoffmann-La Roche Inc., priority 2011, dated 2016).

One assay addresses human CB2 receptors (Homo sapiens (Human), UniProt P34972). In words: cAMP assay, CHO cells expressing human CB2 receptors. It is filed as cell-based. The following applies: CHO cells expressing human CB2, cAMP; read-out: human CB2 EC50. The method, boiled down: (§1)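 Read-out is TR-FRET (excitation 355 nm, emission 730/645 nm) after cell lysis, with cAMP content taken from a standard curve and EC50 calculated. Cells were pretreated with 1 mM IBMX in Krebs Ringer bicarbonate buffer, then incubated with compounds for 30 min at 30 °C.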
(cAMP levels reflect the balance of adenylyl cyclase and phosphodiesterase activity.)

In the next assay the target is human CB1 receptors (Homo sapiens (Human), UniProt P21554). In words: cAMP assay, CHO cells expressing human CB1 receptors. It counts as cell-based. The note with it: CHO cells expressing human CB1, cAMP; read-out: human CB1 EC50. The method, boiled down: as §1

The structures appear in SMILES notation.

Chain of human CB2 receptors (P34972 whole entry): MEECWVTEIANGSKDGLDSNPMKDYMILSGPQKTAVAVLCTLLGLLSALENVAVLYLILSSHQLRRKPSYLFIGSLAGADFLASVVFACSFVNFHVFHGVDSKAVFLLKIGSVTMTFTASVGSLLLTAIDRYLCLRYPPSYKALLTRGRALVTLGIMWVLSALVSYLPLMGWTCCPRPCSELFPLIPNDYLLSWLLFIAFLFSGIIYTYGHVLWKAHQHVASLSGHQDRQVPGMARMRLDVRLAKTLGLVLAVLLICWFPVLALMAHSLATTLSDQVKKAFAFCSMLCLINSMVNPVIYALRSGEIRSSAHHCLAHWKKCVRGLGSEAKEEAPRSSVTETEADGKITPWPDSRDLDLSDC
Chain of human CB1 receptors (P21554 whole entry): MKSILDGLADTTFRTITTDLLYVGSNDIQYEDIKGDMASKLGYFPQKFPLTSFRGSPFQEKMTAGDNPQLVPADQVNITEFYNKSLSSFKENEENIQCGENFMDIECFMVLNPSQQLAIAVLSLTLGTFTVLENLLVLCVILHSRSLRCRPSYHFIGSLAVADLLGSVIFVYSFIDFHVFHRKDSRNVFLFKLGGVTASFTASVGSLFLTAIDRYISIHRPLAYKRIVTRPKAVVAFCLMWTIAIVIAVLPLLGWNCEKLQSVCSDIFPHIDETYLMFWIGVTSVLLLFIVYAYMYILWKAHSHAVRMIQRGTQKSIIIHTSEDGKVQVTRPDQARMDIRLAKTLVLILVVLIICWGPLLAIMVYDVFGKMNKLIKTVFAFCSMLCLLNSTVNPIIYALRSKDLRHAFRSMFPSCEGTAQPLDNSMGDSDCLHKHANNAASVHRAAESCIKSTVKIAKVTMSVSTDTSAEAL

A word on the EC50: it is the concentration that produces a half-maximal response. On to `Cc1nc(C(C)(C)NC(=O)c2ccc(C3CC3)c(OCC3CCCO3)n2)no1` (stereo not drawn) [Example 166, 5-Cyclopropyl-6-(tetrahydro-furan-2-ylmethoxy)-pyridine-2-carboxylic acid [1-methyl-1-(5-methyl-[1,2,4]oxadiazol-3-yl)-ethyl]-amide], for which the results for the EC50 on human CB2 receptors and at human CB1 receptors were 30.5 nM and more than 10000 nM, respectively.
As for `CC(C)(C#N)NC(=O)c1ccc(C2CC2)c(OCC2CC2)n1` [Example 167, N-(2-Cyanopropan-2-yl)-5-cyclopropyl-6-(cyclopropylmethoxy)picolinamide], the EC50 on human CB2 receptors is 206 nM; on human CB1 receptors, more than 10000 nM.
Take `CNC(=O)[C@@H](NC(=O)c1ccc(C2CC2)c(OCC2CC2)n1)C(C)(C)C` [Example 168, (S)-5-Cyclopropyl-6-(cyclopropylmethoxy)-N-(3,3-dimethyl-1-(methylamino)-1-oxobutan-2-yl)picolinamide]: the EC50 on human CB2 receptors worked out at 0.6 nM; at human CB1 receptors it was 313 nM.
On to `CC(C)C(C)(NC(=O)c1ccc(C2CC2)c(OCC2CC2)n1)C(N)=O` (stereo not drawn) [Example 169, N-(1-Amino-2,3-dimethyl-1-oxobutan-2-yl)-5-cyclopropyl-6-(cyclopropylmethoxy)picolinamide], for which the EC50 on human CB2 receptors is 182 nM; on human CB1 receptors it was more than 10000 nM.
For the molecule `CCC(C)(NC(=O)c1ccc(C2CC2)c(OCC2CC2)n1)C(N)=O` (stereo not drawn) [Example 170, N-(1-Amino-2-methyl-1-oxobutan-2-yl)-5-cyclopropyl-6-(cyclopropylmethoxy)picolinamide], the EC50 is 194 nM on human CB2 receptors and more than 10000 nM on human CB1 receptors.
For `Cc1nc(C2(NC(=O)c3ccc(C4CC4)c(OCC4CC4)n3)CCC2)no1` [Example 171, 5-Cyclopropyl-6-(cyclopropylmethoxy)-N-(1-(5-methyl-1,2,4-oxadiazol-3-yl)cyclobutyl)picolinamide], the concentration for a half-maximal effect (EC50) at human CB2 receptors is 46.8 nM; at human CB1 receptors, more than 10000 nM.
For `NC(=O)[C@@H](NC(=O)c1ccc(C2CC2)c(OCC2CC2)n1)c1ccccc1` [Example 172, (S)-N-(2-Amino-2-oxo-1-phenylethyl)-5-cyclopropyl-6-(cyclopropylmethoxy)picolinamide], in that order: 10.1 nM and more than 10000 nM.
For `NC(=O)[C@H](NC(=O)c1ccc(C2CC2)c(OCC2CC2)n1)c1ccccc1` [Example 173, (R)-N-(2-Amino-2-oxo-1-phenylethyl)-5-cyclopropyl-6-(cyclopropylmethoxy)picolinamide], in that order: 23.1 nM and more than 10000 nM.
For `CC(C)C[C@H](CO)NC(=O)c1ccc(C2CC2)c(OCC2CC2)n1` [Example 174, (R)-5-Cyclopropyl-6-(cyclopropylmethoxy)-N-(1-hydroxy-4-methylpentan-2-yl)picolinamide], in that order: 32 nM and more than 10000 nM.
For `O=C(NC1(CO)CCCC1)c1ccc(C2CC2)c(OCC2CC2)n1` [Example 175, 5-Cyclopropyl-6-(cyclopropylmethoxy)-N-(1-(hydroxymethyl)cyclopentyl)picolinamide], the values for the EC50 at human CB2 receptors and on human CB1 receptors were 47.8 nM and more than 10000 nM, respectively.
For `Cc1noc(C(C)(C)NC(=O)c2ccc(C3CC3)c(OCC3CC3)n2)n1` [Example 176, 5-Cyclopropyl-6-(cyclopropylmethoxy)-N-(2-(3-methyl-1,2,4-oxadiazol-5-yl)propan-2-yl)picolinamideinamide], in that order: 114 nM and more than 10000 nM.
Regarding `CC(C)C[C@H](NC(=O)c1ccc(Br)c(Oc2ccc(F)cc2)n1)C(N)=O` [Example 177, 5-Bromo-6-(4-fluoro-phenoxy)-pyridine-2-carboxylic acid ((S)-1-carbamoyl-3-methyl-butyl)-amide], the values for the EC50 on human CB2 receptors and on human CB1 receptors were 196 nM and more than 10000 nM, respectively.
As to `CC(C)CC(C)(NC(=O)c1ccc(C2CC2)c(OCC2CC2)n1)C(N)=O` (stereo not drawn) [Example 178, N-(1-Amino-2,4-dimethyl-1-oxopentan-2-yl)-5-cyclopropyl-6-(cyclopropylmethoxy)picolinamide], the EC50 was 42.2 nM on human CB2 receptors and more than 10000 nM at human CB1 receptors.
`CC(C)(C)C(NC(=O)c1ccc(C2CC2)c(OCC2CC2)n1)C(N)=O` (stereo not drawn) [Example 179, N-(1-Amino-3,3-dimethyl-1-oxobutan-2-yl)-5-cyclopropyl-6-(cyclopropylmethoxy)picolinamide]: the concentration for a half-maximal effect (EC50) at human CB2 receptors amounted to 3.8 nM; at human CB1 receptors, 514 nM.
For the molecule `NC(=O)C1(NC(=O)c2ccc(C3CC3)c(OCC3CC3)n2)CCOCC1` [Example 180, 5-Cyclopropyl-6-cyclopropylmethoxy-pyridine-2-carboxylic acid (4-carbamoyl-tetrahydro-pyran-4-yl)-amide], the half-maximal effective concentration (EC50) at human CB2 receptors was 423 nM; at human CB1 receptors, more than 10000 nM.
For `CNC(=O)[C@H](CC(C)C)NC(=O)c1ccc(C2CC2)c(OCC2CC2)n1` [Example 181, (S)-5-cyclopropyl-6-(cyclopropylmethoxy)-N-(4-methyl-1-(methylamino)-1-oxopentan-2-yl)picolinamide], in that order: 1.3 nM and 231 nM.
For `CNC(=O)[C@H](CC(C)(C)C)NC(=O)c1ccc(C2CC2)c(OCC2CC2)n1` [Example 182, (S)-5-Cyclopropyl-6-(cyclopropylmethoxy)-N-(4,4-dimethyl-1-(methylamino)-1-oxopentan-2-yl)picolinamide], in that order: 1.7 nM and more than 10000 nM.
As to `CNC(=O)[C@@H](NC(=O)c1ccc(C2CC2)c(OCC2CCCO2)n1)C(C)(C)C` (stereo partly drawn) [Example 183, 5-Cyclopropyl-N-((S)-3,3-dimethyl-1-(methylamino)-1-oxobutan-2-yl)-6-((tetrahydrofuran-2-yl)methoxy)picolinamide], the values for the EC50 on human CB2 receptors and on human CB1 receptors were 4 nM and 102 nM, respectively.
Regarding `CNC(=O)[C@H](CC(C)C)NC(=O)c1ccc(C2CC2)c(OCC2CCCO2)n1` (stereo partly drawn) [Example 184, 5-Cyclopropyl-N-((S)-4-methyl-1-(methylamino)-1-oxopentan-2-yl)-6-((tetrahydrofuran-2-yl)methoxy)picolinamide], the half-maximal effective concentration (EC50) at human CB2 receptors is 3.9 nM; on human CB1 receptors, more than 10000 nM.
As to `CNC(=O)[C@H](CC(C)(C)C)NC(=O)c1ccc(C2CC2)c(OCC2CCCO2)n1` (stereo partly drawn) [Example 185, 5-Cyclopropyl-N-((S)-4,4-dimethyl-1-(methylamino)-1-oxopentan-2-yl)-6-((tetrahydrofuran-2-yl)methoxy)picolinamide], the EC50 was 7.5 nM on human CB2 receptors and more than 10000 nM on human CB1 receptors.
With `CC(C)C[C@H](NC(=O)c1ccc(C2CC2)c(OCC2CCCO2)n1)C(N)=O` (stereo partly drawn) [Example 186, N-((S)-1-Amino-4-methyl-1-oxopentan-2-yl)-5-cyclopropyl-6-((tetrahydrofuran-2-yl)methoxy)picolinamide], the EC50 amounted to 1.1 nM at human CB2 receptors and 1490 nM on human CB1 receptors.
Regarding `CC(C)C[C@H](NC(=O)c1ccc(C2CC2)c(Oc2ccc(F)cc2)n1)C(N)=O` [Example 187, 5-Cyclopropyl-6-(4-fluoro-phenoxy)-pyridine-2-carboxylic acid ((S)-1-carbamoyl-3-methyl-butyl)-amide], the EC50 was 52.2 nM at human CB2 receptors and more than 10000 nM on human CB1 receptors.
As to `CNC(=O)[C@@H](NC(=O)c1ccc(Br)c(OCC2CCCO2)n1)C(C)(C)C` (stereo partly drawn) [Example 188, 5-Bromo-6-(tetrahydro-furan-2-ylmethoxy)-pyridine-2-carboxylic acid ((S)-2,2-dimethyl-1-methylcarbamoyl-propyl)-amide], the EC50 is 5 nM on human CB2 receptors and 375 nM at human CB1 receptors.
As for `Cc1nc(C2(NC(=O)c3ccc(C4CC4)c(OCc4ccccn4)n3)CCC2)no1` [Example 189, 5-Cyclopropyl-N-(1-(5-methyl-1,2,4-oxadiazol-3-yl)cyclobutyl)-6-(pyridin-2-ylmethoxy)picolinamide], the concentration giving a half-maximal response (EC50) at human CB2 receptors was 381 nM; on human CB1 receptors, more than 10000 nM.
In the case of `Cc1nc(C(NC(=O)c2ccc(C3CC3)c(OCC3CC3)n2)C2CC2)no1` (stereo not drawn) [Example 190, 5-Cyclopropyl-N-(cyclopropyl(5-methyl-1,2,4-oxadiazol-3-yl)methyl)-6-(cyclopropylmethoxy)picolinamide], the 50% effective concentration (EC50) on human CB2 receptors was 20.4 nM; on human CB1 receptors, more than 10000 nM.
Turning to `CC(C)[C@](C)(CO)NC(=O)c1ccc(C2CC2)c(OCC2CC2)n1` [Example 191, 5-Cyclopropyl-6-cyclopropylmethoxy-pyridine-2-carboxylic acid ((R)-1-hydroxymethyl-1,2-dimethyl-propyl)-amide], the concentration giving a half-maximal response (EC50) is 57.7 nM at human CB2 receptors and more than 10000 nM on human CB1 receptors.
Regarding `CNC(=O)[C@@H](NC(=O)c1cccc(-c2cccc(Cl)c2)n1)C(C)(C)C` [Example 192, (S)-6-(3-Chlorophenyl)-N-(3,3-dimethyl-1-(methylamino)-1-oxobutan-2-yl)picolinamide], the EC50 on human CB2 receptors was determined as 64.2 nM; at human CB1 receptors, 1540 nM.
`CNC(=O)[C@H](CC(C)(C)C)NC(=O)c1cccc(-c2cccc(Cl)c2)n1` [Example 193, (S)-6-(3-Chlorophenyl)-N-(4,4-dimethyl-1-(methylamino)-1-oxopentan-2-yl)picolinamide]: the results for the EC50 on human CB2 receptors and on human CB1 receptors were 99.4 nM and more than 10000 nM, respectively.
As to `CC(C)(CCO)NC(=O)c1ccc(C2CC2)c(OCC2CC2)n1` [Example 194, 5-Cyclopropyl-6-(cyclopropylmethoxy)-N-(4-hydroxy-2-methylbutan-2-yl)picolinamide], the concentration for a half-maximal effect (EC50) was 99.1 nM on human CB2 receptors and more than 10000 nM at human CB1 receptors.
Consider `CNC(=O)[C@@H](NC(=O)c1ccc(C2CC2)c(OCC2CCOCC2)n1)C(C)(C)C` [Example 195, (S)-5-Cyclopropyl-N-(3,3-dimethyl-1-(methylamino)-1-oxobutan-2-yl)-6-((tetrahydro-2H-pyran-4-yl)methoxy)picolinamide], for which the values for the concentration for a half-maximal effect (EC50) on human CB2 receptors and at human CB1 receptors were 1.4 nM and 206 nM, respectively.
